Earlier results in patent publication US7211580B2, “Compounds, compositions, and methods” (Cytokinetics, Incorporated, priority 2002, dated 2007).

System: A549 cells
Conditions: concentration that decreases rate of cell growth by fifty percent

| Compound | GI50 [nM] |
| --- | --- |
| O=c1[nH]cc(F)c(=O)[nH]1 [5-fluorouracil] | 1000 |
| COc1cccc2c1C(=O)c1c(O)c3c(c(O)c1C2=O)C[C@@](O)(C(=O)CO)C[C@@H]3O[C@H]1C[C@H](N)[C@H](O)[C@H](C)O1 [doxorubicin] | 63 |
| NC(=O)NO [hydroxyurea] | 500000 |
| CC(=O)O[C@H]1C(=O)[C@@]2(C)[C@H]([C@H](OC(=O)c3ccccc3)[C@]3(O)C[C@H](OC(=O)[C@H](O)[C@@H](NC(=O)c4ccccc4)c4ccccc4)C(C)=C1C3(C)C)[C@]1(OC(C)=O)CO[C@@H]1C[C@@H]2O [paclitaxel] | 4 |
